Molecular target: T1, hENaC channel (Homo sapiens, UniProt P37088+P51168+P51170, A314G/A350T/D375G/F339S/S458R/Y369S)
T1 sequence (P37088 1-669): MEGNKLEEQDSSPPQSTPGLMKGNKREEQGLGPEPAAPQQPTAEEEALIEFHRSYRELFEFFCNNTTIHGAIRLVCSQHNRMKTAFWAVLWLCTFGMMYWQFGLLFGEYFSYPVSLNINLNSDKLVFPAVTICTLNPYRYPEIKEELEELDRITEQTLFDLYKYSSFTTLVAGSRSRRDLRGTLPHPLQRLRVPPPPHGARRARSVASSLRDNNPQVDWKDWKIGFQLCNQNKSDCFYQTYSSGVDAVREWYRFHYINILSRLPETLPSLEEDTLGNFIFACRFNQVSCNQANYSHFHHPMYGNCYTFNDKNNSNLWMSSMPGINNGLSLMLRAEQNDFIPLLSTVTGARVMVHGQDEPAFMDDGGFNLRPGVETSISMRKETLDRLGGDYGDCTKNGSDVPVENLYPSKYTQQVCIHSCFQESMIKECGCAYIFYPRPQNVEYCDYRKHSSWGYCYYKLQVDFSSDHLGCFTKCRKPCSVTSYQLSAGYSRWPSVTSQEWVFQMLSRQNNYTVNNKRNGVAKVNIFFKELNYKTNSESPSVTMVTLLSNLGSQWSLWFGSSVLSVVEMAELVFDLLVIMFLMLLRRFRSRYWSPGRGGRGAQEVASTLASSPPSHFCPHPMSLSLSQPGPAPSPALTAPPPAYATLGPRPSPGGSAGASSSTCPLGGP
T1 sequence (P51168 1-640 A314G): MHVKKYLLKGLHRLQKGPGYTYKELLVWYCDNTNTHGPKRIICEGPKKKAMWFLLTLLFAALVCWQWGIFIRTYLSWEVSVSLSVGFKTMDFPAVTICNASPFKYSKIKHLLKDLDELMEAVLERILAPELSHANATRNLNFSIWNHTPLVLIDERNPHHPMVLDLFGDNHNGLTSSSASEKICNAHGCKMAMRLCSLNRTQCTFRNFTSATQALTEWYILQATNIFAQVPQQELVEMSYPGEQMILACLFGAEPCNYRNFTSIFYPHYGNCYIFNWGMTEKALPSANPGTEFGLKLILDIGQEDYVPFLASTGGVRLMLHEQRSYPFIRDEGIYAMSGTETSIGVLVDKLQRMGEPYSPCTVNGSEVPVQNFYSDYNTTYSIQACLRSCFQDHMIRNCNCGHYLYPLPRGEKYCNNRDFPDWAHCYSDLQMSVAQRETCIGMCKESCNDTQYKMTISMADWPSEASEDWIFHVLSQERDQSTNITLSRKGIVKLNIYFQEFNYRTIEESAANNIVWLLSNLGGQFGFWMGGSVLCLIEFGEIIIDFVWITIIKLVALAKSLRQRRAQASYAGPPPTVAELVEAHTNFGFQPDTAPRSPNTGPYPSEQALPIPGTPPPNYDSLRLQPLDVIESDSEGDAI
T1 sequence (P51170 1-649 F339S/A350T/Y369S/D375G/S458R): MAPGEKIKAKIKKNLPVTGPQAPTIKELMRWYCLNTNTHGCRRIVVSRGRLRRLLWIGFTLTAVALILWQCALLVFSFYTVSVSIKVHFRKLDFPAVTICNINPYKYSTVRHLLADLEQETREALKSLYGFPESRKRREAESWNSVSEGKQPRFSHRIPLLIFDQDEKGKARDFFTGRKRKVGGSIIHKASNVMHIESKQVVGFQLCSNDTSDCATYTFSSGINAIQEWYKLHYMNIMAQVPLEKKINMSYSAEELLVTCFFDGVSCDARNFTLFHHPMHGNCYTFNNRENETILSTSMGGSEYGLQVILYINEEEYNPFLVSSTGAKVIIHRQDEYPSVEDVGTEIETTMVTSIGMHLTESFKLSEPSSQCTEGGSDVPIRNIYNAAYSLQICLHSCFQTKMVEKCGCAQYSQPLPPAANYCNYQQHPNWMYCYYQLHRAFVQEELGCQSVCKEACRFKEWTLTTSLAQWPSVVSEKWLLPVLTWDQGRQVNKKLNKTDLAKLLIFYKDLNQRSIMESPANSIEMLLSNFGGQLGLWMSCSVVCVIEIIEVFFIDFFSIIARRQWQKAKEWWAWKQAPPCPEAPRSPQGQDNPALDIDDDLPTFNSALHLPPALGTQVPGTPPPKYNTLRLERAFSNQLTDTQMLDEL
Assay: Primary screen MP assay (membrane potential dye): dose-response curves for inhibition by hENaC blockers
Assay type: cell-based
Conditions: HEK293 Flp-In T-Rex hENaC cells (alpha, beta, gamma; pUR8191), loaded with MP-Blue dye for 1 hr, Flexstation; FIG. 4
Protocol: FIG. 4. Dose-response curve for different concentrations of the hENaC blockers amiloride, benzamil and phenamil (in M). Cells were loaded with MP-Blue dye for 1 hr and assayed in the Flexstation.
HEK293 Flp-In T-Rex hENaC cells were grown to about 80% confluency and dissociated from the culture dish with trypsin/EDTA for 1-5 minutes at 37° C. Dissociated cells were taken up in a concentration between 1×10^5 and 1×10^6 cells/ml in DMEM/Tet-free FCS/blasticidin/hygromycin medium. 100 μL of cells were added per well in a poly-L-lysine coated black well clear bottom 96-wells plate. The cells were grown overnight and then induced by addition of 100 μl DMEM/Tet-free FCS/blasticidin/hygromycin medium with doxycyclin (final conc. 0.25 μg/ml). Alternatively, in some wells amiloride was added to inhibit hENaC channel activity during induction.
After 20 to 48 hrs the medium was removed, cells were washed with buffer and subsequently loaded with MP-Blue (cat# R8042) or MP-Red (cat# R8123) dye (from Molecular Devices) according to the manufacturer's instructions for 1 hr at 37° C. The plates were subsequently loaded into the Flexstation II for fluorescence measurements. Compounds were added to the wells in different concentrations after a baseline measurement of 30 sec. […] The fluorescence values were normalized on the average value of the first five time points. […]

Structure (SMILES) | inhibition of the hENaC channel (rank order from dose-response curves)
NC(=Nc1ccccc1)NC(=O)c1nc(Cl)c(N)nc1N [phenamil] | the best compound for inhibition
N=C(N)NC(=O)c1nc(Cl)c(N)nc1N [amiloride] | followed by benzamil and amiloride
